From patent US7601716B2, “Pyridopyrazines and derivatives thereof as ALK and c-Met inhibitors” (Cephalon, Inc., priority 2006, dated 2009)

What was measured:
[1] = biological target: T1, c-Met (cytoplasmic domain) (Homo sapiens, UniProt P08581); assay: c-Met Kinase Assay (ELISA/TRF, PLC-γ substrate); type: biochemical; details: 3 μM ATP (Km level); read-out: c-Met Kinase Inhibition (IC50)
T1 construct: Reactions were initiated with 30 ng/mL c-Met (cytoplasmic domain, Invitrogen Corporation #PV3143); purchased Invitrogen Corporation PV3143
How it was run: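 c-Met cytoplasmic domain (30 ng/mL) phosphorylates plate-coated GST–PLC-γ for 15 min at 37 °C. Phosphotyrosine detected with Eu-labeled PT66 antibody by time-resolved fluorescence. IC50 from variable-slope sigmoidal fit of % inhibition vs log concentration.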

[2] = biological target: baculovirus-expressed ALK (Homo sapiens, UniProt Q9UM73); assay: ALK Kinase Assay (ELISA/TRF, PLC-γ substrate); type: biochemical; details: read-out: ALK Kinase Inhibition (IC50); further: 1 µM ATP (Km level)
How it was run: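 GST-PLC-γ coat 10 μg/mL/TBS; 30 ng/ml ALK, 37° C, 15 min; Eu-PT66 anti-pTyr 1 h 37° C, enhancement, TRF. IC50: % inhib vs log10[cpd], variable-slope sigmoid.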

T1 sequence (P08581 956-1390 limits assumed): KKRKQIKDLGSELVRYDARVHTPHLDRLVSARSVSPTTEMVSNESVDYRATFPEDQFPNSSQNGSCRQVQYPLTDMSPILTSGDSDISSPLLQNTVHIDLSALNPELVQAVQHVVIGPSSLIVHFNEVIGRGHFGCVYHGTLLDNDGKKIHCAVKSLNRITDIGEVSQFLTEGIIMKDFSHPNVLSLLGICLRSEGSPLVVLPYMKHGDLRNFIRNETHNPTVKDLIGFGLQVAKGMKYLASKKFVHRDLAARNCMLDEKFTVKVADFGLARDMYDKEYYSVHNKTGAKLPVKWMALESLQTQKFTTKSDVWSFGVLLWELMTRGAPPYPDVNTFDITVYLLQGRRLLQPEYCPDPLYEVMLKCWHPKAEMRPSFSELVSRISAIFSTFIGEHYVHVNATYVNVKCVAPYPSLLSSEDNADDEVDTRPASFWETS
Chain of baculovirus-expressed ALK (Q9UM73 19-1620): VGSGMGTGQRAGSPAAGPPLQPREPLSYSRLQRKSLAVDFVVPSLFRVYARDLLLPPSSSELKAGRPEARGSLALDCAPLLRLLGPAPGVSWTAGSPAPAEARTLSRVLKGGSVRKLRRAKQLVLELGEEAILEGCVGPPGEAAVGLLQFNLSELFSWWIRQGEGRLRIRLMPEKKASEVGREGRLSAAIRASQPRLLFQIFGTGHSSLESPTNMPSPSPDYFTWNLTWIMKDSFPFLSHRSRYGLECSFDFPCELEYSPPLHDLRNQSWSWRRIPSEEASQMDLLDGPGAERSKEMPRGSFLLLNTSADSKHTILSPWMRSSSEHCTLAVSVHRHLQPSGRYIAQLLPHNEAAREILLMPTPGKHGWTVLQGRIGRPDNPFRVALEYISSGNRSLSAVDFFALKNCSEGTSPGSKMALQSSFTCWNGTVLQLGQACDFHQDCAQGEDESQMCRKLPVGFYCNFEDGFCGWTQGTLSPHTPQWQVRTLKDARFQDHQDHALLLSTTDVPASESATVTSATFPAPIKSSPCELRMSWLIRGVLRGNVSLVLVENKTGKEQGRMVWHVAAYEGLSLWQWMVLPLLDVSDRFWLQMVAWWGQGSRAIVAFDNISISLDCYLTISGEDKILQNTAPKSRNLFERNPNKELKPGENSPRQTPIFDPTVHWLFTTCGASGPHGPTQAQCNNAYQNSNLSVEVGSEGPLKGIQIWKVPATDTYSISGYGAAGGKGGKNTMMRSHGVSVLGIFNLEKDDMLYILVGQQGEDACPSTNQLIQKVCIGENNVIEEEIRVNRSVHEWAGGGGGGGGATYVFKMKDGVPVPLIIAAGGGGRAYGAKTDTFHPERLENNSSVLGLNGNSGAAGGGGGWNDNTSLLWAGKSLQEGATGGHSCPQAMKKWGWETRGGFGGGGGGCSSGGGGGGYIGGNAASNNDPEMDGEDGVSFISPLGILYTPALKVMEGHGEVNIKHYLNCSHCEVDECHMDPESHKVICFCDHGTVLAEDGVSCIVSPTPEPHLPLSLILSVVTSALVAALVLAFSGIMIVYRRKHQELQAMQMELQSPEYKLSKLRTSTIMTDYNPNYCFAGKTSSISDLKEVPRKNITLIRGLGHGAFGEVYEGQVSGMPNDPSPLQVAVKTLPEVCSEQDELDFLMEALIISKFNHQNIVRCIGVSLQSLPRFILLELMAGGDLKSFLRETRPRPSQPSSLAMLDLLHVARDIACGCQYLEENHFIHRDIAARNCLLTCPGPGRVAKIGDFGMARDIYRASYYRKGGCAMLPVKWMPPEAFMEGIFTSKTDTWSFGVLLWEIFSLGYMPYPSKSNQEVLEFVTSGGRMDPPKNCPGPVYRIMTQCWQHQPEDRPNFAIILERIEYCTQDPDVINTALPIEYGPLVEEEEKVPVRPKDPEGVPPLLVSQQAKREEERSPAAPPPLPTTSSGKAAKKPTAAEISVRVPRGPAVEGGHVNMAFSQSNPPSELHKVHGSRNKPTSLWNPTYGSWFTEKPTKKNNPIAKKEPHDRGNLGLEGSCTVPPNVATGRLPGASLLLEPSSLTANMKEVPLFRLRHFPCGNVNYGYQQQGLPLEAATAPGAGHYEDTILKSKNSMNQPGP

Row | Structure (SMILES) | IC50 [1] [µM] | IC50 [2] [µM] | melting point
1 | O=C1CNc2ncc(-c3cccnc3)cc2N1Cc1c(Cl)cccc1Cl [Example 137, 1-(2,6-Dichlorobenzyl)-7-pyridin-3-yl-3,4-dihydro-1H-pyrido[2,3-b]pyrazin-2-one] | > 100 | 10 to 100 | > 200 °C
2 | O=C1CNc2ncc(I)cc2N1Cc1c(Cl)cccc1Cl [Example 136, 1-(2,6-Dichlorobenzyl)-7-iodo-3,4-dihydro-1H-pyrido[2,3-b]pyrazin-2-one] | > 100 | > 100 | > 200 °C
3 | Ic1cnc2c(c1)N(Cc1ccccc1)CCN2 [Example 33, 1-Benzyl-7-iodo-1,2,3,4-tetrahydropyrido[2,3-b]pyrazine] | > 100 | 10 to 100 | 147 to 148 °C
4 | CCOC(=O)c1ccc(-c2cnc3c(c2)N(Cc2ccccc2)C(=O)CN3)cc1 [Example 9, 4-(1-Benzyl-2-oxo-1,2,3,4-tetrahydropyrido[2,3-b]pyrazin-7-yl)benzoic acid ethyl ester] | > 100 | 10 to 100 | 178 °C
5 | O=C(O)CCNc1cccc(Br)n1 [Example 265, 3-(6-bromo-pyridin-2-ylamino)propionic acid] | > 100 | > 100 | 108 to 109 °C
6 | CCOC(=O)c1cccc(-c2cnc3c(c2)N(Cc2cc(Cl)ccc2C(F)(F)F)CCN3)c1 [Example 194, 3-{1-[5-Chloro-2-(trifluoromethyl)benzyl]-1,2,3,4-tetrahydropyrido[2,3-b]pyrazin-7-yl}benzoic acid ethyl ester] | > 100 | 0.1 to 1 | 174 °C
7 | N#Cc1cnc2c(c1)N(Cc1cc(F)ccc1F)CCN2 [Example 77, 1-(2,5-Difluorobenzyl)-1,2,3,4-tetrahydropyrido[2,3-b]pyrazine-7-carbonitrile] | > 100 | 1 to 10 | 204 to 206 °C
8 | O=C1CNc2ncc(I)cc2N1Cc1ccc(C(F)(F)F)o1 [Example 290, 7-Iodo-1-[5-(trifluoromethyl)furan-2-ylmethyl]-3,4-dihydro-1H-pyrido[2,3-b]pyrazin-2-one] | > 100 | 10 to 100 | 189 to 191 °C
9 | Clc1cccc(OC2CCNc3ncc(-c4ccc(N5CCOCC5)cc4)cc32)c1 (stereo not drawn) [Example 280, 4-(3-Chlorophenoxy)-6-(4-morpholin-4-yl-phenyl)-1,2,3,4-tetrahydro-[1,8]naphthyridine] | 10 to 100 | 1 to 10 | 124 to 126 °C

More lines, now with the values ahead:

Row | IC50 [1] [µM] | IC50 [2] [µM] | melting point | Structure (SMILES)
10 | 10 to 100 | > 100 | 154 to 156 °C | Fc1cc(F)c(CN2CCNc3ncc(I)cc32)cc1F [Example 82, 7-Iodo-1-(2,4,5-trifluorobenzyl)-1,2,3,4-tetrahydropyrido[2,3-b]pyrazine]
11 | 1 to 10 | 0.1 to 1 | 156 °C | Cn1cc(-c2cnc3c(c2)N(Cc2cc(Cl)ccc2C(F)(F)F)CCN3)cn1 [Example 203, 1-[5-Chloro-2-(trifluoromethyl)benzyl]-7-(1-methyl-1H-pyrazol-4-yl)-1,2,3,4-tetrahydropyrido[2,3-b]pyrazine]
12 | 10 to 100 | 10 to 100 | 200 °C (dec.) | CCOC(=O)CNc1ncc(I)cc1[N+](=O)[O-] [Example 1, (5-Iodo-3-nitro-pyridin-2-ylamino)-acetic acid ethyl ester]
13 | 10 to 100 | 1 to 10 | > 300 °C | O=C(O)c1ccc(-c2cnc3c(c2)N(Cc2cc(F)ccc2F)C(=O)CN3)cc1 [Example 56, 4-[1-(2,5-Difluorobenzyl)-2-oxo-1,2,3,4-tetrahydropyrido[2,3-b]pyrazin-7-yl]benzoic acid]
14 | 0.1 to 1 | < 0.1 | 188 to 190 °C | N#Cc1c(F)ccc(F)c1CN1CCNc2ncc(-c3ccc(N4CCOCC4)nc3)cc21 [Example 289, 3,6-Difluoro-2-[7-(6-morpholin-4-yl-pyridin-3-yl)-3,4-dihydro-2H-pyrido[2,3-b]pyrazin-1-ylmethyl]benzonitrile]
